Series [1] can be described thus: Cytotoxicity in mock-infected MT4 CMV-EGFP cells (GFP fluorescence). In kind it is cell-based. Conditions: human, 50% cytotoxic concentration as negative log. The source says: Analogously, MT4 cells are engineered with GFP and the constitutional cytomegalovirus (CMV) promotor. This cell line is designated MT4 CMV-EGFP, and can be used for the in vitro evaluation of cytotoxicity of investigational compounds. In this cell line, GFP levels are comparably to those of infected MT4 LTR-EGFP cells. Cytotoxic investigational compounds reduce GFP levels of mock-infected MT4 CMV-EGFP cells.
(§1) Effective concentration values such as 50% effective concentration (EC50) can be determined and are usually expressed in μM. An EC50 value is defined as the concentration of test compound that reduces the fluorescence of HIV-infected cells by 50%. The 50% cytotoxic concentration (CC50 in μM) is defined as the concentration of test compound that reduces fluorescence of the mock-infected cells by 50%. The ratio of CC50 to EC50 is defined as the selectivity index (SI) and is an indication of the selectivity of the anti-HIV activity of the inhibitor. The ultimate monitoring of HIV-1 infection and cytotoxicity is done using a scanning microscope. Image analysis allows very sensitive detection of viral infection. Measurements are done before cell necrosis, which usually takes place about five days after infection, in particular measurements are performed three days after infection.

Series [2] deals with wild-type HIV-IIIB strain. Nature of the series: Anti-viral activity in cellular assay, MT4 LTR-EGFP cells (GFP fluorescence). The format is cell-based, HIV-1. Conditions: Human immunodeficiency virus 1, 72 h, pEC50 = -log10(EC50), measured three days after infection. As for the experimental part:
The compounds of the present invention were tested for anti-viral activity in a cellular assay, which was performed according to the following procedure.
The human T-cell line MT4 is engineered with Green Fluorescent Protein (GFP) and an HIV-specific promoter, HIV-1 long terminal repeat (LTR). This cell line is designated MT4 LTR-EGFP, and can be used for the in vitro evaluation of anti-HIV activity of investigational compounds. In HIV-1 infected cells, the Tat protein is produced which upregulates the LTR promotor and finally leads to stimulation of the GFP reporter production, allowing to measure ongoing HIV-infection fluorometrically.
as §1
The following Table 6 lists pEC50 values against wild-type HIV-IIIB strain as well as pEC50 values for a selected number of compounds of the invention. A pEC50 value corresponds to −log10(EC50). Listed are compounds having a pEC50 value of at least 5.00.

Turning to `O=c1c2ccccc2c2nc3sccn3c2n1-c1ccc([N+](=O)[O-])cc1` [Compound 98, 6-(4-nitrophenyl)-thiazolo[2′,3′:2,3]imidazo[4,5-c]isoquinolin-5(6H)-one], the CC50 (usually the concentration giving 50% cytotoxicity) at 3 days in series [1] is above 32400 nM. Besides, the EC50 (as a rule, the concentration at which the effect is half-maximal) in series [2] was 977 nM.

Regarding `O=C(Nc1ccc2nc3c4ccccc4c(=O)n(-c4ccc([N+](=O)[O-])cc4)c3n2c1)C(F)(F)F` [Compound 90], the cytotoxic concentration (CC50) at 3 days in series [1] was above 32400 nM. In series [2], this compound gave a concentration for a half-maximal effect (EC50) of 398 nM.

With `O=c1c2ccccc2c2nc3ccc(NCCNCCO)nn3c2n1-c1ccc([N+](=O)[O-])cc1` [Compound 130], in series [1], the CC50 at 3 days is 3550 nM. In series [2], this compound had a concentration for a half-maximal effect (EC50) of 219 nM.

In turn, `O=c1c2ccccc2c2nc3ccc(NCCN4CCCC4)nn3c2n1-c1ccc([N+](=O)[O-])cc1` [Compound 115] gave a half-maximal cytotoxic concentration (CC50) at 3 days in series [1] of 832 nM. Besides, the 50% effective concentration (EC50) in series [2] is 912 nM.

`Cc1ccc(-n2c(=O)c3ccccc3c3nc4ccccn4c32)cc1[N+](=O)[O-]` [Compound 22]: the CC50 at 3 days in series [1] was above 32400 nM. This compound gave an EC50 in series [2] of 2880 nM.

`O=c1c2ccccc2c2nc3ccc(NCCN4CCCC4)cn3c2n1-c1ccc([N+](=O)[O-])cc1` [Compound 67, 6-(4-nitrophenyl)-9-(2-pyrrolidin-1-yl-ethylamino)-pyrido[2′,1′:2,3]imidazo[4,5-c]isoquinolin-5(6H)-one] had a half-maximal cytotoxic concentration (CC50) at 3 days in series [1] of 2630 nM. Also, in series [2], the concentration giving a half-maximal response (EC50) was 339 nM.

In the case of `CN(C)CCOc1ccc2nc3c4ccccc4c(=O)n(-c4ccc([N+](=O)[O-])cc4)c3n2c1` [Compound 81], in series [1], the CC50 at 3 days is 13500 nM. The same compound had a concentration for a half-maximal effect (EC50) in series [2] of 3160 nM.

In series [1], `O=c1c2ccccc2c2nc3ccc(OCCO)cn3c2n1-c1ccc([N+](=O)[O-])cc1` [Compound 74, 9-[2-hydroxy-ethoxy]-6-(4-nitrophenyl)-pyrido[2′,1′:2,3]imidazo[4,5-c]isoquinolin-5(6H)-one] gave a CC50 at 3 days above 32400 nM. The compound further gave an EC50 in series [2] of 871 nM.

`O=c1c2ccccc2c2nc3ccccn3c2n1-c1ccc([N+](=O)[O-])cc1` [Compound 1, 6-(4-nitrophenyl)-pyrido[2′,1′:2,3]imidazo-[4,5-c]isoquinolin-5(6H)-one] showed a 50% cytotoxic concentration (CC50) at 3 days in series [1] above 32400 nM. The compound also gave an EC50 in series [2] of 355 nM.

`O=c1c2ccccc2c2nc3ccc(NCCCO)nn3c2n1-c1ccc([N+](=O)[O-])cc1` [Compound 118] showed a CC50 at 3 days in series [1] above 32400 nM. In series [2], the response was half-maximal at 646 nM (EC50).

Compound `O=c1c2ccccc2c2nc3ccccn3c2n1-c1ccc(Br)nc1` [Compound 21, 6-(6-bromo-pyridin-3-yl)-pyrido-[2′,1′:2,3]imidazo[4,5-c]isoquinolin-5(6H)-one] had a CC50 at 3 days in series [1] above 32400 nM. This compound also showed an EC50 in series [2] of 4470 nM.

`CCNCCNc1ccc2nc3c4ccccc4c(=O)n(-c4ccc([N+](=O)[O-])cc4)c3n2n1` [Compound 128] gave a cytotoxic concentration (CC50) at 3 days in series [1] of 851 nM. In series [2], the midpoint of the response, the EC50, lay at 30.9 nM.

As to `CNc1ccc2nc3c4ccccc4c(=O)n(-c4ccc([N+](=O)[O-])cc4)c3n2n1` [Compound 114], in series [1], the cytotoxic concentration (CC50) at 3 days is above 32400 nM. In series [2], the EC50 is 245 nM.

`O=CNc1ccc2nc3c4ccccc4c(=O)n(-c4ccc([N+](=O)[O-])cc4)c3n2c1` [Compound 70] had a 50% cytotoxic concentration (CC50) at 3 days in series [1] above 32400 nM. In addition, in series [2], a half-maximal effect (EC50) was put at 603 nM.

In turn, `O=C(Nc1ccc2nc3c4ccccc4c(=O)n(-c4ccc(Cl)nc4)c3n2c1)C(F)(F)F` [Compound 61, N-[6-(6-chloro-pyridin-3-yl)-5,6-dihydro-5-oxo-pyrido[2′,1′:2,3]imidazo[4,5-c]isoquinolin-9-yl]-2,2,2-trifluoro-acetamide] had a CC50 at 3 days in series [1] above 32400 nM. The compound also showed an EC50 in series [2] of 2090 nM.

Compound `O=c1c2ccccc2c2nc3ccc(NCCO)nn3c2n1-c1ccc([N+](=O)[O-])cc1` [Compound 121, 9-[(2-hydroxyethyl)amino]-6-(4-nitrophenyl)-pyridazo[3′,2′:2,3]imidazo[4,5-c]isoquinolin-5(6H)-one] showed a CC50 at 3 days in series [1] of 14800 nM. In addition, in series [2], the midpoint of the response, the EC50, lay at 275 nM.

Consider `O=c1c2ccccc2c2nc3ccc(OP(=O)(O)O)cn3c2n1-c1ccc(Cl)nc1` [Compound 77], for which the CC50 at 3 days in series [1] was 25700 nM. In addition, in series [2], the EC50 is 1120 nM.

With `Cc1ccc(-n2c(=O)c3ccccc3c3nc4ccccn4c32)cn1` [Compound 19], in series [1], the half-maximal cytotoxic concentration (CC50) at 3 days is above 32400 nM. In addition, the EC50 in series [2] is 8910 nM.

In series [1], `O=c1c2cc(Br)ccc2c2nc3ccccn3c2n1-c1ccc([N+](=O)[O-])cc1` [Compound 101, 3-bromo-6-(4-nitrophenyl)-pyrido[2′,1′:2,3]imidazo[4,5-c]isoquinolin-5(6H)-one] had a CC50 at 3 days above 100000 nM. Besides, in series [2], a half-maximal response (EC50) required 2190 nM.

In turn, `O=c1c2ccccc2c2nc3ccc(NCCO)nn3c2n1-c1ccc(Cl)nc1` [Compound 126] showed a half-maximal cytotoxic concentration (CC50) at 3 days in series [1] above 32400 nM. In addition, in series [2], the EC50 was 2140 nM.

`CN(C)CCN(C)c1ccc2nc3c4ccccc4c(=O)n(-c4ccc([N+](=O)[O-])cc4)c3n2c1` [Compound 68] gave a 50% cytotoxic concentration (CC50) at 3 days in series [1] of 16600 nM. In series [2], a half-maximal response (EC50) required 1230 nM.

Turning to `CN(C)CCCOc1ccc2nc3c4ccccc4c(=O)n(-c4ccc([N+](=O)[O-])cc4)c3n2c1` [Compound 82], the cytotoxic concentration (CC50) at 3 days in series [1] was 8910 nM. This compound also had an EC50 in series [2] of 1120 nM.

`CN(C)CCCNc1ccc2nc3c4ccccc4c(=O)n(-c4ccc([N+](=O)[O-])cc4)c3n2n1` [Compound 120] gave a cytotoxic concentration (CC50) at 3 days in series [1] of 1320 nM. This compound also had an EC50 in series [2] of 631 nM.

Take `Cc1cccc2c(=O)n(-c3ccc([N+](=O)[O-])cc3)c3c(nc4ccc(O)cn43)c12` [Compound 110, 9-hydroxy-1-methyl-6-(4-nitrophenyl)-pyrido[2′,1′:2,3]imidazo[4,5-c]isoquinolin-5(6H)-one]: the cytotoxic concentration (CC50) at 3 days in series [1] was 5370 nM. The compound further gave an EC50 in series [2] of 53.7 nM.

In turn, `CN(C)/C=N/c1ccc2nc3c4ccccc4c(=O)n(-c4ccc(Cl)nc4)c3n2c1` [Compound 84, 6-(6-chloro-pyridin-3-yl)-9-[[(dimethylamino)-methylene]amino]-pyrido[2′,1′:2,3]imidazo[4,5-c]isoquinolin-5(6H)-one] had a CC50 at 3 days in series [1] of 16600 nM. The half-maximal effective concentration (EC50) in series [2] is 6170 nM.

Take `O=c1c2ccccc2c2nc3ccc(NCc4ccccc4)nn3c2n1-c1ccc([N+](=O)[O-])cc1` [Compound 125]: in series [1], the 50% cytotoxic concentration (CC50) at 3 days was above 20000 nM. Also, in series [2], it took 5250 nM to reach a half-maximal effect (EC50).

In turn, `O=c1c2ccccc2c2nc3ccc(OCCN4CCCC4)cn3c2n1-c1ccc([N+](=O)[O-])cc1` [Compound 78] gave a cytotoxic concentration (CC50) at 3 days in series [1] above 32400 nM. In series [2], this compound had a half-maximal effective concentration (EC50) of 3020 nM.

`O=c1c2ccccc2c2nc3ccccn3c2n1-c1ccc(Cl)nc1` [Compound 18] gave a CC50 at 3 days in series [1] above 32400 nM. In series [2], this compound had a concentration for a half-maximal effect (EC50) of 8130 nM.

With `CN(C)CCNc1ccc2nc3c4ccccc4c(=O)n(-c4ccc([N+](=O)[O-])cc4)c3n2n1` [Compound 122], in series [1], the CC50 at 3 days was 69.2 nM. In addition, in series [2], the EC50 was 89.1 nM.

Regarding `O=c1c2ccccc2c2nc3ccc(OP(=O)(O)O)cn3c2n1-c1ccc([N+](=O)[O-])cc1` [Compound 76, phosphoric acid 5,6-dihydro-6-(4-nitrophenyl)-5-oxo-pyrido[2′,1′:2,3]imidazo[4,5-c]isoquinolin-9-yl ester], the CC50 at 3 days in series [1] is above 32400 nM. The same compound gave a concentration giving a half-maximal response (EC50) in series [2] of 74.1 nM.

For the origin of these results see US7994187B2, “HIV inhibiting 3,4-dihydro-imidazo[4,5-B]pyridin-5-ones” (Tibotec Pharmaceuticals Ltd., priority 2006, dated 2011).
